Read-outs that look alike come from different tables or passages of the source.
What was measured:
DLD1 WT cells = experiment: 7-day cell viability assay (CellTiter-Glo), DLD1 parental (WT); type: cell-based, human; conditions: n=2
DLD1 BRCA2 (−/−) cells = experiment: 7-day cell viability assay (CellTiter-Glo), DLD1 BRCA2 (−/−); type: cell-based, human; conditions: n=2, read-out: Viability IC50 (uM) DLD1 BRCA2 null
How it was run: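 7-day growth assay in DLD1 cells with or without BRCA2; seeding densities chosen to keep log-linear growth. Compound: 10 uM top, 3-fold, 9 points. Endpoint: CTG ATP luminescence at RT.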

[1] = molecular target: biotinylated Avi-POLθ[2-894] (Homo sapiens (Human), UniProt O75417); experiment: POLθ ATPase assay (ADP-Glo); conditions: n=2, read-out: Biochemical ATPase ADPGlo IC50
[2] = Homo sapiens, DLD-1, 168 h, 7-day CellTiter-Glo
[3] = Homo sapiens, DLD-1, 168 h, 7-day viability

biotinylated Avi-POLθ[2-894], sequence (O75417 2-894): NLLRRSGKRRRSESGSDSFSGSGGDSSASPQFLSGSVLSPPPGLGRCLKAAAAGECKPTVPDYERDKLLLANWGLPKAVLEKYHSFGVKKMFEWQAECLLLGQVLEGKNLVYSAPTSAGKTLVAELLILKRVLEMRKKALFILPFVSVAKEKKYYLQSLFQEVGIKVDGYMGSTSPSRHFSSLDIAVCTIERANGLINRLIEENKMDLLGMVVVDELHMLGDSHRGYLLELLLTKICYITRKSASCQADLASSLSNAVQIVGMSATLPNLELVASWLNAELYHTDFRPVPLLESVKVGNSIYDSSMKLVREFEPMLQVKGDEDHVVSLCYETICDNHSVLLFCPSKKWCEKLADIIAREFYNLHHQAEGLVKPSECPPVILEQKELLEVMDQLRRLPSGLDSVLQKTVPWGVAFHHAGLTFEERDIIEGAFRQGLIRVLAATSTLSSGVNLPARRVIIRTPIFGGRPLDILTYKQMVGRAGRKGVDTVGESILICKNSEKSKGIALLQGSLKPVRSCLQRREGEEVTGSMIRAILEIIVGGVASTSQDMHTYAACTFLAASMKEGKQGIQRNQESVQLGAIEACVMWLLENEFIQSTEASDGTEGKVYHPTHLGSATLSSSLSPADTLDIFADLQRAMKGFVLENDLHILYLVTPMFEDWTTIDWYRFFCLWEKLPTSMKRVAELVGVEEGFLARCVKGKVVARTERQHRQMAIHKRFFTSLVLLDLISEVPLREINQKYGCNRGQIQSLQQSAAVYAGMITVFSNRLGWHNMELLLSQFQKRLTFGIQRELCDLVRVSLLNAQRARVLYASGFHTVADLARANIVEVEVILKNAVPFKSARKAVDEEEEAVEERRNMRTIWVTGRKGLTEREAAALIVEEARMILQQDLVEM

Row | IC50 (DLD1 BRCA2 (−/−) cells; [2]) [µM] | IC50 ([1]; POLθ ATPase, ADP-Glo) [nM] | IC50 (DLD1 BRCA2 (−/−) cells; [3]) [µM] | IC50 [1] [nM] | Structure (SMILES) | IC50 (DLD1 WT cells; [2]) [µM] | IC50 (DLD1 WT cells; [3]) [µM] | IC50 (DLD1 WT cells; 7-day viability) [µM] | IC50 (DLD1 BRCA2 (−/−) cells; 7-day viability) [µM]
1 | 0.001 to 0.1 | 1 to 15 |  |  | COc1cnc(Cl)cc1-c1cc(C)ncc1C(=O)Nc1nc2c(s1)CN(C(=O)C1CCC(OC(F)(F)F)C1)C2 (racemic) [Example 397, (Racemic) 2′-chloro-5′-methoxy-6-methyl-N-(5-(3-(trifluoromethoxy)cyclopentane-1-carbonyl)-5,6-dihydro-4H-pyrrolo[3,4-d]thiazol-2-yl)-[4,4′-bipyridine]-3-carboxamide] | ≥ 10 |  |  | 
2 |  |  | 0.5 to 2 | 50 to 150 | COc1ccccc1-c1cc(C)ncc1C(=O)Nc1nc2c(s1)CN(C(=O)OC(C)(C)C)C2 [Example 314] |  | 2 to 5 |  | 
3 |  |  | ≥ 2 | 1 to 15 | COc1ccc(C#N)cc1-c1cc(C)ncc1C(=O)Nc1nc2c(s1)CN(C(=O)c1ccncc1)C2 |  | ≥ 10 |  | 
4 | 0.001 to 0.1 | 1 to 15 |  |  | COc1ccc(C#N)cc1-c1cc(C)ncc1C(=O)Nc1nc2c(s1)CN(C(=O)c1cccc(OC)c1Cl)C2 | ≥ 10 |  |  | 
5 |  |  | 0.25 to 0.5 | 1 to 15 | COc1cnc(Cl)cc1-c1cc(C)ncc1C(=O)Nc1nc2c(s1)CN(C(=O)[C@H]1C[C@@H](C#N)C1)C2 [Example 190] |  | ≥ 10 |  | 
6 |  |  | 0.5 to 2 | 1 to 15 | COc1ccc(C#N)cc1-c1cc(C)ncc1C(=O)Nc1nc2c(s1)CN(S(=O)(=O)NCC(C)C)C2 |  | ≥ 10 |  | 
7 |  |  | 0.1 to 0.25 | 1 to 15 | COc1ccc(C#N)cc1-c1cc(C)ncc1C(=O)Nc1nc2c(s1)CN(C(=O)c1ccc(C)cn1)C2 [Example 304] |  | ≥ 10 |  | 
8 |  |  | 0.001 to 0.1 | 1 to 15 | COc1cnc(Cl)cc1-c1cc(C)ncc1C(=O)Nc1nc2c(s1)CN(C(=O)c1cc3n(n1)CCC3)C2 [Example 63, 2′-chloro-N-(5-(5,6-dihydro-4H-pyrrolo[1,2-b]pyrazole-2-carbonyl)-5,6-dihydro-4H-pyrrolo[3,4-d]thiazol-2-yl)-5′-methoxy-6-methyl-[4,4′-bipyridine]-3-carboxamide] |  | 5 to 10 |  | 
9 |  |  | 0.001 to 0.1 | 1 to 15 | COc1cnc(Cl)cc1-c1cc(C)ncc1C(=O)Nc1nc2c(s1)CN(C(=O)C1CCC(OC(F)F)C1)C2 (stereo not drawn) |  | ≥ 10 |  | 
10 |  |  | ≥ 2 | ≥ 900 | COc1ccccc1-c1cc(C)ncc1C(=O)Nc1nc2c(s1)CN(CC1CCCCC1)CC2 |  | ≥ 10 |  | 
11 |  |  | 0.5 to 2 | 1 to 15 | COc1ccc(C#N)cc1-c1cc(C)ncc1C(=O)Nc1nc2c(s1)CN(C(=O)C1CCCCC1)C2 |  | ≥ 10 |  | 
12 |  |  | ≥ 2 | 1 to 15 | COc1ccc(C#N)cc1-c1cc(C)ncc1C(=O)Nc1nc2c(s1)CN(C(=O)c1ccccn1)C2 [Example 276] |  | ≥ 10 |  | 
13 |  |  | ≥ 2 | 1 to 15 | COc1ccc(C#N)cc1-c1cc(C)ncc1C(=O)Nc1nc2c(s1)CN(S(=O)(=O)NC1CC1)C2 |  | ≥ 10 |  | 
14 | 0.001 to 0.1 | 1 to 15 |  |  | COc1cnc(Cl)cc1-c1cc(C)ncc1C(=O)Nc1nc2c(s1)CN(C(=O)C1CCC(C(F)F)CC1)C2 (stereo not drawn) [Example 406, (Cis and trans) 2′-chloro-N-(5-(4-(difluoromethyl)cyclohexane-1-carbonyl)-5,6-dihydro-4H-pyrrolo[3,4-d]thiazol-2-yl)-5′-methoxy-6-methyl-[4,4′-bipyridine]-3-carboxamide] | ≥ 10 |  |  | 
15 |  |  | 0.001 to 0.1 | 1 to 15 | COc1cnc(Cl)cc1-c1cc(C)ncc1C(=O)Nc1nc2c(s1)CN(C(=O)c1ccc(Cl)nc1)C2 [Example 13, 2′-chloro-N-(5-(6-chloronicotinoyl)-5,6-dihydro-4H-pyrrolo[3,4-d]thiazol-2-yl)-5′-methoxy-6-methyl-[4,4′-bipyridine]-3-carboxamide] |  | ≥ 10 |  | 

Further lines, the molecule ahead of its results:

Row | Structure (SMILES) | IC50 (DLD1 BRCA2 (−/−) cells; [2]) [µM] | IC50 ([1]; POLθ ATPase, ADP-Glo) [nM] | IC50 (DLD1 BRCA2 (−/−) cells; [3]) [µM] | IC50 [1] [nM] | IC50 (DLD1 WT cells; [2]) [µM] | IC50 (DLD1 WT cells; [3]) [µM] | IC50 (DLD1 WT cells; 7-day viability) [µM] | IC50 (DLD1 BRCA2 (−/−) cells; 7-day viability) [µM]
16 | COc1cnc(Cl)cc1-c1cc(C)ncc1C(=O)Nc1nc2c(s1)CN(C(=O)c1c(Cl)ccnc1OC)C2 [Example 460] | 0.001 to 0.1 | 1 to 15 |  |  | 5 to 10 |  |  | 
17 | COc1nc(OC)c(-c2cc(C)ncc2C(=O)Nc2nc3c(s2)CN(C(=O)c2ccc(C(F)(F)F)nc2OC)C3)cc1Cl [Example 1036, 5-chloro-2,6-dimethoxy-N-(5-(2-methoxy-6-(trifluoromethyl)nicotinoyl)-5,6-dihydro-4H-pyrrolo[3,4-d]thiazol-2-yl)-6′-methyl-[3,4′-bipyridine]-3′-carboxamide] | 0.001 to 0.1 | 1 to 15 |  |  | ≥ 10 |  |  | 
18 | COc1cnc(Cl)cc1-c1cc(C)ncc1C(=O)Nc1nc2c(s1)CN(C(=O)c1ncc(C(F)(F)F)cn1)C2 [Example 37, 2′-chloro-5′-methoxy-6-methyl-N-(5-(5-(trifluoromethyl)pyrimidine-2-carbonyl)-5,6-dihydro-4H-pyrrolo[3,4-d]thiazol-2-yl)-[4,4′-bipyridine]-3-carboxamide] |  |  | 0.001 to 0.1 | 1 to 15 |  | ≥ 10 |  | 
19 | COc1cnc(Cl)cc1-c1cc(C)ncc1C(=O)Nc1nc2c(s1)CN(C(=O)c1cnc(C(F)F)cn1)C2 [Example 40, 2′-chloro-N-(5-(5-(difluoromethyl)pyrazine-2-carbonyl)-5,6-dihydro-4H-pyrrolo[3,4-d]thiazol-2-yl)-5′-methoxy-6-methyl-[4,4′-bipyridine]-3-carboxamide] |  |  | 0.001 to 0.1 | 1 to 15 |  | 5 to 10 |  | 
20 | COc1ccc(C(=O)N2Cc3nc(NC(=O)c4cnc(C)cc4-c4cc(Cl)ncc4OC)sc3C2)cn1 | 0.001 to 0.1 | 1 to 15 |  |  | ≥ 10 |  |  | 
21 | COc1cnc(Cl)cc1-c1cc(C)ncc1C(=O)Nc1nc2c(s1)CN(C(=O)c1ccn(C(F)F)n1)C2 [Example 159] |  |  | 0.1 to 0.25 | 1 to 15 |  | ≥ 10 |  | 
22 | COc1cnc(Cl)cc1-c1cc(C)ncc1C(=O)Nc1nc2c(s1)CN(C(=O)c1cc(C(C)C)n(C)n1)C2 [Example 95, 2′-chloro-N-(5-(5-isopropyl-1-methyl-1H-pyrazole-3-carbonyl)-5,6-dihydro-4H-pyrrolo[3,4-d]thiazol-2-yl)-5′-methoxy-6-methyl-[4,4′-bipyridine]-3-carboxamide] |  |  | 0.001 to 0.1 | 1 to 15 |  | ≥ 10 |  | 
23 | COc1ccc(C#N)cc1-c1cc(C)ncc1C(=O)Nc1nc2c(s1)CN(C(=O)c1cccnc1OC)C2 (racemic) [Example 127] |  |  | 0.001 to 0.1 | 1 to 15 |  | ≥ 10 |  | 
24 | COc1ccc(C(=O)N2Cc3nc(NC(=O)c4cnc(C)cc4-c4cc(Cl)ncc4OC)sc3C2)c(Cl)n1 | 0.001 to 0.1 | 1 to 15 |  |  | ≥ 10 |  |  | 
25 | COc1ccc(C#N)cc1-c1cc(C)ncc1C(=O)Nc1nc2c(s1)CN(C(=O)c1ccc(C(F)F)c(F)c1)C2 | 0.001 to 0.1 | 1 to 15 |  |  | ≥ 10 |  |  | 
26 | COc1cnc(Cl)cc1-c1cc(C)ncc1C(=O)Nc1nc2c(s1)CN(C(=O)c1cc(C)nn1C(F)F)C2 |  |  | 0.1 to 0.25 | 1 to 15 |  | ≥ 10 |  | 
27 | COc1cnc(Cl)cc1-c1cc(C)ncc1C(=O)Nc1nc2c(s1)CN(C(=O)c1cccc(Cl)c1OC)C2 | 0.001 to 0.1 | 1 to 15 |  |  | 5 to 10 |  |  | 
28 | COc1cnc(Cl)cc1-c1cc(C)ncc1C(=O)Nc1nc2c(s1)CN(C(=O)c1ccc(C(F)F)nc1Cl)C2 | 0.001 to 0.1 | 1 to 15 |  |  | ≥ 10 |  |  | 
29 | COc1cc(Cl)nc(C(=O)N2Cc3nc(NC(=O)c4cnc(C)cc4-c4cc(Cl)ncc4OC)sc3C2)c1 | 0.001 to 0.1 | 1 to 15 |  |  | ≥ 10 |  |  | 
30 | COc1cnc(Cl)cc1-c1cc(C)ncc1C(=O)Nc1nc2c(s1)CN(C(=O)c1ncc(C(F)(F)F)cc1OC)C2 [Example 38, 2′-chloro-5′-methoxy-N-(5-(3-methoxy-5-(trifluoromethyl)picolinoyl)-5,6-dihydro-4H-pyrrolo[3,4-d]thiazol-2-yl)-6-methyl-[4,4′-bipyridine]-3-carboxamide] |  |  | 0.001 to 0.1 | 1 to 15 |  | ≥ 10 |  | 
31 | COc1cnc(Cl)cc1-c1cc(C)ncc1C(=O)Nc1nc2c(s1)CN(C(=O)c1c(C)nn(C)c1Cl)C2 [Example 5, 2′-chloro-N-(5-(5-chloro-1,3-dimethyl-1H-pyrazole-4-carbonyl)-5,6-dihydro-4H-pyrrolo[3,4-d]thiazol-2-yl)-5′-methoxy-6-methyl-[4,4′-bipyridine]-3-carboxamide] |  |  | 0.001 to 0.1 | 1 to 15 |  | ≥ 10 |  | 
32 | COc1cnc(Cl)cc1-c1cc(C)ncc1C(=O)Nc1nc2c(s1)CC(N[C@H]1C[C@H](O)C1)CC2 (stereo partly drawn) [Example 141, 2′-Chloro-N-(6-(((1r,3r)-3-hydroxycyclobutyl)amino)-4,5,6,7-tetrahydrobenzo[d]thiazol-2-yl)-5′-methoxy-6-methyl-[4.4′-bipyridine]-3-carboxamide] |  |  |  | 1 to 15 |  |  | ≥ 10 | 0.001 to 0.1
33 | COc1cnc(Cl)cc1-c1cc(C)ncc1C(=O)Nc1nc2c(s1)CN(C(=O)c1cnc(OC)c(Cl)c1)C2 | 0.001 to 0.1 | 1 to 15 |  |  | 5 to 10 |  |  | 
34 | COc1cnc(Cl)cc1-c1cc(C)ncc1C(=O)Nc1nc2c(s1)CN(C(=O)c1ccc(OC)c3ccnn13)C2 [Example 402] |  |  | 0.001 to 0.1 | 1 to 15 |  | ≥ 10 |  | 
35 | COc1cnc(Cl)cc1-c1cc(C)ncc1C(=O)Nc1nc2c(s1)CN(C(=O)c1cc(C)n(C(F)F)n1)C2 [Example 52, 2′-chloro-N-(5-(1-(difluoromethyl)-5-methyl-1H-pyrazole-3-carbonyl)-5,6-dihydro-4H-pyrrolo[3,4-d]thiazol-2-yl)-5′-methoxy-6-methyl-[4,4′-bipyridine]-3-carboxamide] |  |  | 0.001 to 0.1 | 1 to 15 |  | ≥ 10 |  | 

Source: US20250230171A1 (MOMA Therapeutics, Inc., priority 2023, published 2025)
